From US6329339A, “Pharmaceutical antiviral composition comprising glycyrrhizic acid and at least one protein endowed with antiviral activity” (priority 1997, dated 2001)

Columns and labels:
[1] = test system: Herpes Simplex Virus type 1; details: cited from earlier work
[2] = in vivo, cited from earlier work
HSV1 [3] = assay: Inhibition of HSV1 viral plaques on VERO cells; type: cell-based, Herpes Simplex Virus type 1; details: for Inhibition (%) of viral plaques with various lysozymes: percentage of the control ± standard deviation
[4] = test system: virus (viral replication); details: cited from earlier work
[5] = test system: infected cells, synthesis of glyco-proteins; details: cited from earlier work
[6] = test system: normal cells, synthesis of glyco-proteins; details: cited from earlier work
[7] = test system: normal cells, synthesis of proteins; details: even at doses of 4 mM; cited from earlier work
[8] = test system: infected cells, synthesis of proteins; details: even at doses of 4 mM; cited from earlier work
HSV1 [9] = details: 8 mM, cited from earlier work
HSV1 [10] = details: Arch. Virol. 1995; cited from earlier work
[11] = test system: human immunodeficiency virus; details: in vitro; cited from earlier work
human cytomegalovirus = details: in vitro; cited from earlier work
[12] = Human alphaherpesvirus 1, Vero, read-out: Glycyrrhizic acid - Inhibition (%) of viral plaques

Nc1nc2c(ncn2COCCO)c(=O)[nH]1 [aciclovir]
efficacy during the first infection ([1]; administered during the first infection): fairly efficient | prevention of re-infection ([1]; re-infection by Herpes Simplex Virus type 1): not preventing re-infection | efficacy in recurring infections ([1]; recurring infections): not very effective | side effects of oral treatment ([2]; po): nausea, diarrhoea, itching, headaches, renal inadequacies and nephrotoxicity | side effects of topical use [2]: often causes burning and irritation of mucous membranes

CC1(C)[C@@H](O[C@H]2O[C@H](C(=O)O)[C@@H](O)[C@H](O)[C@H]2O[C@@H]2O[C@H](C(=O)O)[C@@H](O)[C@H](O)[C@H]2O)CC[C@]2(C)[C@H]3C(=O)C=C4[C@@H]5C[C@@](C)(C(=O)O)CC[C@]5(C)CC[C@@]4(C)[C@]3(C)CC[C@@H]12 [glycyrrhizic acid]
inhibition at 200 µg/mL (HSV1 [3]; [12]): 0% | inhibition at 400 µg/mL (HSV1 [3]; [12]): 10 ± 4% | inhibition at 600 µg/mL (HSV1 [3]; [12]): 27 ± 7% | inhibition at 800 µg/mL (HSV1 [3]; [12]): 50 ± 8% | inhibition at 1000 µg/mL (HSV1 [3]; [12]): 75 ± 12% | inhibition of viral replication ([4]; 0.5 mM): 50% | reduction of the virus ([4]; 1 mM): 80% | inhibition of production of the virus ([4]; 4 mM): 99% | antiviral activity [4]: a certain antiviral activity | reduction in the incorporation of glucosamine-H^3, infected cells ([5]; 0.5 mM, infected cells): more than 10% | reduction in the synthesis of glyco-protein in infected cells ([5]; 1 mM, infected cells): 20% | synthesis of viral glycoproteins ([5]; at antiviral doses): largely inhibits | inhibition of incorporation of glucosamine-H^3, normal cells ([6]; 0.5 mM, normal cells): no inhibition | inhibition of the synthesis of glyco-proteins in the control ([6]; 1 mM, control (normal) cells): no inhibition | synthesis of glyco-proteins in the normal cells ([6]; 4 mM, normal cells): slightly altered | cell glycoproteins synthesis ([6]; only at very high doses): only at very high doses does it also inhibit | action on the synthesis of proteins, normal cells [7]: practically irrelevant | action on the synthesis of proteins, infected cells [8]: practically irrelevant | Viral production after 12 hours (HSV1 [9]; contact 2 hours at 37° C., 12 hours (control 3 × 10^6)): 4.2 × 10^4 PFU/ml | Viral production after 17 hours (HSV1 [9]; contact 2 hours at 37° C., 17 hours (control 5.4 × 10^6)): 1.2 × 10^4 PFU/ml | inhibition at 12 hours from the infection (HSV1 [9]; 12 hours): about 2 logarithms | inhibition at 22 hours from infection (HSV1 [9]; 22 hours): ~3 logarithms | inhibition at 22 hours from infection (%) (HSV1 [9]; 22 hours): 99.9% | decrease in infection (HSV1 [9]; at 12, 17 and 22 hours): strong decrease in infection

chicken lysozyme: chicken lysozyme supplied by SIGMA
Inhibition (%) of viral plaques with various lysozymes (HSV1 [3]; 0.5 mg/ml): 20 ± 4% | Inhibition (%) of viral plaques with various lysozymes (HSV1 [3]; 1 mg/ml): 49 ± 5% | Inhibition (%) of viral plaques with various lysozymes (HSV1 [3]; 2 mg/ml): 60 ± 6% | Inhibition (%) of viral plaques with various lysozymes (HSV1 [3]; 4 mg/ml): 71 ± 6% | Inhibition (%) of viral plaques with various lysozymes (HSV1 [3]; 6 mg/ml): 82 ± 4% | dose dependence of the action (HSV1 [3]; in words): dose-dependent | formation of herpetic virus plaques on VERO cells (HSV1 [3]; in words): significantly inhibits

lactoferrin
antiviral / antiherpetic (HSV1) activity of lactoferrin (HSV1 [10]): antiherpetic (HSV1) activity | activity against human immunodeficiency virus replication [11]: potent activity | activity against human cytomegalovirus replication (human cytomegalovirus): potent activity
